Target: T1, KRAS G12C 1-169, his-tagged protein, GDP-loaded (Homo sapiens, UniProt P01116, G12C)
T1 construct: KRAS G12C 1-169, his-tagged protein, GDP-loaded
Assay: Biochemical assay: covalent binding to KRAS G12C analyzed by mass spectrometry; note: test concentration or dose not given here
Details: compounds 1-47, measured at 24 h

T1 sequence (P01116 1-169 isoform P01116-2 G12C): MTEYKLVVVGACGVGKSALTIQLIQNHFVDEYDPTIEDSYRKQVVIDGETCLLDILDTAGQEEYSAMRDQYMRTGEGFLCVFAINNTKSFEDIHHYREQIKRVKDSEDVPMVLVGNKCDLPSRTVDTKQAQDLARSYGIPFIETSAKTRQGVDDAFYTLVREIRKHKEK

Structure (SMILES) | Binding %
C=CC(=O)N1CCN(c2nccc3cc(Cl)c(-c4ccccc4Cl)cc23)CC1 [Compound I-24, 1-(4-(6-chloro-7-(2-chlorophenyl)isoquinolin-1-yl)piperazin-1-yl)prop-2-en-1-one] | + (+indicates binding activity from 5% to 25%)
C=CC(=O)N1CCN(c2ncnc3cc(Cl)c(-c4ccccc4Cl)cc23)CC1 [Compound I-1, 1-(4-(7-chloro-6-(2-chlorophenyl)quinazolin-4-yl)piperazin-1-yl)prop-2-en-1-one] | +++ (+++indicates binding activity greater than 50% and up to 75%)
C=CC(=O)N1CCN(c2ncnc3cc(Cl)c(-c4ccc(Cl)cc4)cc23)CC1C#N (centres unmarked) [Compound I-47, 1-acryloyl-4-(7-chloro-6-(4-chlorophenyl)quinazolin-4-yl)piperazine-2-carbonitrile] | ++++ (++++indicates binding activity greater than 75%)
C=CC(=O)N1CCN(c2ncnc3cc(Cl)c(N4CCOCC4)cc23)CC1 [Compound I-32, 1-(4-(7-chloro-6-morpholinoquinazolin-4-yl)piperazin-1-yl)prop-2-en-1-one] | + (+indicates binding activity from 5% to 25%)
C=CC(=O)N1CCN(c2c(C#N)cnc3cc(Cl)c(-c4ccc(Cl)cc4)cc23)CC1 [Compound I-42, 4-(4-acryloylpiperazin-1-yl)-7-chloro-6-(4-chlorophenyl)quinoline-3-carbonitrile] | +++ (+++indicates binding activity greater than 50% and up to 75%)

Same assay, conditions: compounds 48-246, measured at 2 h

Structure (SMILES) | Binding %
C=CC(=O)N1CCN(c2ncnc3c(F)c(-c4c(O)ccc5ccccc45)c(Cl)cc23)CC1 [Compound I-235, 1-(4-(6-chloro-8-fluoro-7-(2-hydroxynaphthalen-1-yl)quinazolin-4-yl)piperazin-1-yl)prop-2-en-1-one] | +++ (+++indicates binding activity greater than 50% and up to 75%)
C=CC(=O)N1CCN(c2ncnc3cc(-c4ccccc4CC4CC4)c(Cl)cc23)CC1 [Compound I-156, 1-(4-(6-chloro-7-(2-(cyclopropylmethyl)phenyl)quinazolin-4-yl)piperazin-1-yl)prop-2-en-1-one] | ++ (++indicates binding activity greater than 25% and up to 50%)
C=CC(=O)N1CCN(c2ncnc3cc(-c4c(F)ccc(F)c4O)c(Cl)cc23)CC1 [Compound I-216, 1-(4-(6-chloro-7-(3,6-difluoro-2-hydroxyphenyl)quinazolin-4-yl)piperazin-1-yl)prop-2-en-1-one] | + (+indicates binding activity from 5% to 25%)
C=CC(=O)N1CCN(c2ncnc3cc(-c4ccccc4C(F)(F)F)c(Cl)cc23)CC1CC#N (centres unmarked) [Compound I-125, 2-(1-acryloyl-4-(6-chloro-7-(2-(trifluoromethyl)phenyl)quinazolin-4-yl)piperazin-2-yl)acetonitrile] | ++++ (++++indicates binding activity greater than 75%)
C=CC(=O)N1CCN(c2ncnc3cc(-c4ccc(Cl)cc4F)c(Cl)cc23)CC1 [Compound I-114, 1-(4-(6-chloro-7-(4-chloro-2-fluorophenyl)quinazolin-4-yl)piperazin-1-yl)prop-2-en-1-one] | +++ (+++indicates binding activity greater than 50% and up to 75%)
C=CC(=O)N1CCN(c2ncnc3cc(-c4ccccc4)ccc23)CC1 [Compound I-87] | + (+indicates binding activity from 5% to 25%)
C=CC(=O)N1CCN(c2ncnc3cc(-c4ccccc4F)c(O)cc23)CC1 [Compound I-163, 1-(4-(7-(2-fluorophenyl)-6-hydroxyquinazolin-4-yl)piperazin-1-yl)prop-2-en-1-one] | + (+indicates binding activity from 5% to 25%)
C=CC(=O)N1CCN(c2c(C#N)cnc3cc(-c4ccccc4C(F)(F)F)c(Cl)cc23)CC1 [Compound I-173, 4-(4-acryloylpiperazin-1-yl)-6-chloro-7-(2-(trifluoromethyl)phenyl) quinoline-3-carbonitrile] | ++++ (++++indicates binding activity greater than 75%)
C=CC(=O)N1CCN(c2nccc3cc(-c4ccccc4)c(Cl)cc23)CC1 [Compound I-88, 1-(4-(7-chloro-6-phenylisoquinolin-1-yl)piperazin-1-yl)prop-2-en-1-one] | + (+indicates binding activity from 5% to 25%)
C=CC(=O)N1CCN(c2ncnc3cc(-c4cc(-c5cn[nH]c5)ccc4F)c(Cl)cc23)CC1 [Compound I-188, 1-(4-(6-chloro-7-(2-fluoro-5-(1H-pyrazol-4-yl)phenyl)quinazolin-4-yl)piperazin-1-yl)prop-2-en-1-one] | +++ (+++indicates binding activity greater than 50% and up to 75%)
C=CC(=O)N1CCN(c2ncnc3cc(-c4ccc(Cl)cc4Cl)c(Cl)cc23)CC1 [Compound I-102, 1-(4-(6-chloro-7-(2,4-dichlorophenyl)quinazolin-4-yl)piperazin-1-yl)prop-2-en-1-one] | +++ (+++indicates binding activity greater than 50% and up to 75%)
C=CC(=O)N1CCN(c2ncnc3cc(-c4ccccc4F)c(Cl)cc23)CC1CC#N (centres unmarked) [Compound I-106] | ++++ (++++indicates binding activity greater than 75%)
C=CC(=O)N1CCN(c2ccnc3cc(-c4ccccc4)c(Cl)cc23)CC1 [Compound I-91, 1-(4-(6-chloro-7-phenylquinolin-4-yl)piperazin-1-yl)prop-2-en-1-one] | ++ (++indicates binding activity greater than 25% and up to 50%)
C=CC(=O)N1CCN(c2ncnc3cc(-c4ccc(F)cc4F)c(Cl)cc23)CC1CC#N (centres unmarked) [Compound I-139, 2-(1-acryloyl-4-(6-chloro-7-(2,4-difluorophenyl)quinazolin-4-yl)piperazin-2-yl)acetonitrile] | ++++ (++++indicates binding activity greater than 75%)
C=CC(=O)N1CCN(c2ncnc3cc(Cl)c(C#N)cc23)CC1C#N (centres unmarked) [Compound I-53, 4-(4-acryloyl-3-cyanopiperazin-1-yl)-7-chloroquinazoline-6-carbonitrile] | ++++ (++++indicates binding activity greater than 75%)
C=CC(=O)N1CCN(c2ncnc3cc(-c4ccc(F)cc4F)c(Cl)cc23)CC1 [Compound I-112, 1-(4-(6-chloro-7-(2,4-difluorophenyl)quinazolin-4-yl)piperazin-1-yl)prop-2-en-1-one] | +++ (+++indicates binding activity greater than 50% and up to 75%)

Same assay, conditions: compounds 247-342, measured at 30 min

Structure (SMILES) | Binding %
C=CC(=O)N1CCN(c2nc(OC3CCOC3)nc3cc(-c4c(C)ccc5[nH]ncc45)c(Cl)cc23)CC1 (centres unmarked) [Compound 300, 1-(4-(6-chloro-7-(5-methyl-1H-indazol-4-yl)-2-(tetrahydrofuran-3-yloxy)quinazolin-4-yl)piperazin-1-yl)prop-2-en-1-one] | ++ (++indicates binding activity greater than 25% and up to 50%)
C=CC(=O)N1CCN(c2ncnc3c(F)c(-c4c(C)ccc5[nH]ncc45)c(Cl)cc23)CC1CO (centres unmarked) [Compound 320, 1-(4-(6-chloro-8-fluoro-7-(5-methyl-1H-indazol-4-yl)quinazolin-4-yl)-2-(hydroxymethyl)piperazin-1-yl)prop-2-en-1-one] | ++ (++indicates binding activity greater than 25% and up to 50%)
C=CC(=O)N1CCN(c2ncnc3c(F)c(-c4c(O)cc(F)cc4F)c(Cl)cc23)CC1 [Compound I-280, 1-(4-(6-chloro-7-(2,4-difluoro-6-hydroxyphenyl)-8-fluoroquinazolin-4-yl)piperazin-1-yl)prop-2-en-1-one] | +++ (+++indicates binding activity greater than 50% and up to 75%)
C=CC(=O)N1CCN(c2ncnc3c(F)c(-c4ccccc4C(C)(C)O)c(Cl)cc23)CC1 [Compound I-278, 1-(4-(6-chloro-8-fluoro-7-(2-(2-hydroxypropan-2-yl)phenyl)quinazolin-4-yl)piperazin-1-yl)prop-2-en-1-one] | ++ (++indicates binding activity greater than 25% and up to 50%)
C=CC(=O)N1CCN(c2ncnc3c(F)c(-c4cc(C(F)F)ccc4F)c(Cl)cc23)CC1 [Compound 307, 1-(4-(6-chloro-7-(5-(difluoromethyl)-2-fluorophenyl)-8-fluoroquinazolin-4-yl)piperazin-1-yl)prop-2-en-1-one] | ++ (++indicates binding activity greater than 25% and up to 50%)

Same assay, conditions: determined at 2 hrs

Structure (SMILES) | Binding %
C=CC(=O)N1CCN(C(=O)c2cc(-c3ccc(Cl)cc3)c(Cl)cc2O)CC1C#N (centres unmarked) [III-37, 1-acryloyl-4-(4′,6-dichloro-4-hydroxybiphenylcarbonyl)piperazine-2-carbonitrile] | ++ (++indicates binding activity greater than 20%)
C=CC(=O)N1CC(N2CCN(C(=O)CNc3cc(Cl)c(CC)cc3O)CC2)C1 [II-52, 1-(3-(4-(2-(5-chloro-4-ethyl-2-hydroxyphenylamino)acetyl)piperazin-1-yl)azetidin-1-yl)prop-2-en-1-one] | + (+indicates binding activity from 5% to 20%)

Same assay, conditions: determined at 24 hrs

Structure (SMILES) | Binding %
C=CC(=O)N1CC(N2CCN(C(=O)CNc3ncc(Cl)s3)CC2)C1 [II-38, 1-(3-(4-(2-(5-chlorothiazol-2-ylamino)acetyl)piperazin-1-yl)azetidin-1-yl)prop-2-en-1-one] | + (+indicates binding activity from 5% to 15%)
C=CC(=O)NC1CN(C2CN(C(=O)CNc3cc(Br)c(Cl)cc3O)C2)C1 [II-36, N-(1′-(2-(5-bromo-4-chloro-2-hydroxyphenylamino)-acetyl)-1,3′-biazetidin-3-yl)acrylamide] | ++++ (++++indicates binding activity greater than 50%)
C=CC(=O)N1CCC(N2CCN(C(=O)CNc3cc(C)c(Cl)cc3O)CC2)C1 (centres unmarked) [II-7, 1-(3-(4-(2-(4-chloro-2-hydroxy-5-methylphenylamino)-acetyl)piperazin-1-yl)pyrrolidin-1-yl)prop-2-en-1-one] | ++ (++indicates binding activity greater than 15% and up to 25%)
C=CC(=O)N1CC(N2CCN(C(=O)CNc3cc(C4CC4)c(Cl)cc3O)CC2)C1 [II-35, 1-(3-(4-(2-(4-chloro-5-cyclopropyl-2-hydroxyphenyl-amino)acetyl)piperazin-1-yl)azetidin-1-yl)prop-2-en-1-one] | ++++ (++++indicates binding activity greater than 50%)
